The record followed here is ChEMBL document CHEMBL5335779, “The research progress of SARS-CoV-2 main protease inhibitors from 2020 to 2022” (Eur J Med Chem, 2023).

Data set [1] concerns SARS-CoV-2. It counts as functional, organism-based. Particulars: Severe acute respiratory syndrome coronavirus 2, Vero C1008.
The target of data set [2] is T1, Replicase polyprotein 1ab (Severe acute respiratory syndrome coronavirus 2, UniProt P0DTD1). Kind of data set: Inhibition of N-terminal GST-tagged SARS-CoV-2 Main protease expressed in Escherichia coli BL21 (DE3) incubated for 10 mins by FRET analysis.
Data set [3] concerns the target T1, Replicase polyprotein 1ab. Kind of data set: Inhibition of N-terminal 6His-tagges SARS-CoV-2 PLpro Wuhan (1524 to 1883 residues) expressed in Escherichia coli BL21(DE3) using Arg-Leu-Arg-Gly-Gly-AMC as substrate preincubated for 5 mins followed by substrate addition measured after 6 mins by fluorescence based assay.
Data set [4] in a line: Clearance in CD1 mouse at 5 mg/kg, ip. It counts as ADME, organism-based. Particulars: in vivo.
Data set [5] addresses T1, Replicase polyprotein 1ab. Kind of data set: Binding affinity to SARS-CoV-2 Main protease assessed as inhibition constant.
For data set [6], the system named is SARS-CoV-2. Kind of data set: Antiviral activity against SARS-CoV-2 USA-WA1/2020 infected in Vero E6 cells assessed as reduction in viral replication incubated for 3 days by viral plaque assay. It counts as functional, organism-based. To be noted: Severe acute respiratory syndrome coronavirus 2, USA-WA1/2020, Vero C1008, 72 h.
The target of data set [7] is T1, Replicase polyprotein 1ab. Kind of data set: Inhibition of His-tagged SARS-CoV-2 Main protease BetaCoV/Wuhan/WIV04/2019 expressed in Escherichia coli BL21 (DE3) using Dabcyl-KTSAVLQ/SGFRKME(Edan) as substrate followed by compound addition by FRET assay.
The target of data set [8] is T1, Replicase polyprotein 1ab. Kind of data set: Inhibition of GST-tagged SARS-CoV-2 Main protease expressed in Escherichia coli BL21 using Dabcyl-Val-Asn-Ser-Thr-Leu-Gln-Ser-Gly-Leu-Arg-Lys-EDANS as fluorogenic substrate preincubated for 10 mins followed by substrate addition and measured after 1 hrs by FRET assay.
For data set [9], the target named is T1, Replicase polyprotein 1ab. Kind of data set: Inhibition of N-terminal GST-tagged SARS-CoV-2 Main protease expressed in Escherichia coli BL21 (DE3) using DABCYL-KTSAVLQSGFRKME-EDANS as fluorogenic substrate preincubated for 10 mins followed by compound addition and measured after 1 hr by FRET assay.
The target of data set [10] is T1, Replicase polyprotein 1ab. Kind of data set: Inhibition of full length GST-tagged SARS-CoV-2 Main protease expressed in Escherichia coli.
Data set [11] relates to SARS-CoV-2. Kind of data set: Antiviral activity against SARS-CoV-2 infected in human Calu-3 cells assessed as reduction in viral growth. It counts as functional, organism-based. Particulars: Severe acute respiratory syndrome coronavirus 2, Calu-3.
Data set [12] can be described thus: Inhibition of MERS-CoV Main protease. Set-up: species or system Middle East respiratory syndrome-related coronavirus.
The target of data set [13] is Replicase polyprotein 1ab (Severe acute respiratory syndrome-related coronavirus, UniProt P0C6X7). Kind of data set: Inhibition of recombinant SARS-CoV-1 Main protease.
The subject of data set [14] is SARS-CoV-2. Type of data set: functional, organism-based. To be noted: Severe acute respiratory syndrome coronavirus 2, Vero C1008, 64 h.
Data set [15] concerns SARS-CoV-2. Kind of data set: Antiviral activity against SARS-CoV-2 WA1 infected in human A549-hACE2-TMPRSS2 cells assessed as reduction in viral replication. Type of data set: functional, organism-based. To be noted: Severe acute respiratory syndrome coronavirus 2, WA1, A549-hACE2-TMPRSS2.
In the next data set the test system is Human coronavirus 229E. Kind of data set: Antiviral activity against HCoV-229E infected in human Huh-7 cells assessed as reduction in viral replication. It counts as functional, organism-based.
A short description of data set [16]: Half life in Sprague-Dawley rat at 20 mg/kg, ip by LC-MS/MS analysis. Type of data set: ADME, organism-based. Particulars: in vivo.
A short description of data set [17]: Oral bioavailability in Sprague-Dawley rat at 20 mg/kg by LC-MS/MS analysis. It counts as ADME, organism-based. To be noted: in vivo.
The nature of data set [18]: Clearance in Sprague-Dawley rat at 20 mg/kg, ip by LC-MS/MS analysis. Type of data set: ADME, organism-based. To be noted: in vivo.
In data set [19] the target is T1, Replicase polyprotein 1ab. Kind of data set: Binding affinity to N-terminal full length SARS-CoV-2 Main protease assessed as inhibition constant.
Data set [20] has as its target T1, Replicase polyprotein 1ab. Kind of data set: Inhibition of N-terminal SARS-CoV-2 Main protease expressed in Escherichia coli BL21 (DE3) by using MCA-AVLQSGFR-Lys (Dnp)-Lys-NH as fluorogenic substrate by FRET assay.

Usually IC50 stands for the concentration that inhibits the measured activity by half. Molecule `Cn1sc(=O)n(Cc2ccccc2)c1=O` displayed an IC50 in the data set on SARS-CoV-2 [1] of 670 nM.

On to `O=C(Oc1cncc(Cl)c1)c1cccs1`, for which, in data set [2], the IC50 worked out at 80 nM.

In data set [3], `C[C@H](NC(=O)OCc1ccccc1)C(=O)N[C@@H](C)C(=O)NN(CC(N)=O)C(=O)/C=C/C(=O)c1ccccc1` had an IC50 of 490 nM.

Broadly, the CL/F is clearance divided by bioavailability, as obtained after extravascular dosing. `O=C[C@H](C[C@@H]1CCNC1=O)NC(=O)[C@H](CC1CCCCC1)NC(=O)c1cc2ccccc2[nH]1` displayed a CL/F in data set [4] of 17.4 mL/min/kg.

As a reminder, the Ki is the dissociation constant of the complex between target and ligand, obtained from inhibition or displacement. For the molecule `C=CCn1ccc2c(C(=O)Oc3cncc(Cl)c3)cccc21`, the Ki in data set [5] amounted to 73 nM.

The term EC50 denotes the concentration giving half of the maximal effect. For the molecule `O=C(N[C@@H](CC1CC1)C(=O)N[C@@H](C[C@@H]1CCNC1=O)C(O)S(=O)(=O)O)OCCc1cccc(Cl)c1` (stereo partly specified), the EC50 with SARS-CoV-2 [6] was 700 nM.

For the molecule `O=C(N[C@@H](CC1CC1)C(=O)N[C@@H](C[C@@H]1CCNC1=O)C(O)S(=O)(=O)O)OCc1cccc(F)c1` (stereo partly specified), in the data set with SARS-CoV-2 [6], the EC50 amounted to 570 nM. Further, in data set [7], half-maximal inhibition (IC50) required 70 nM.

Consider `COc1cccc(-n2[se]c3ccccc3c2=O)c1`, for which the half-inhibitory concentration (IC50) in [8] is 4080 nM.

As to `CC(C)(C)c1ccc(N(C(=O)CCl)C(C(=O)NC2CCCCC2)c2cccnc2)cc1` (stereo unspecified), it took 410 nM to reach half-maximal inhibition in [9] (IC50).

In turn, `O=C[C@H](C[C@@H]1CCNC1=O)NC(=O)[C@H](Cc1ccccc1)NC(=O)c1cc2ccccc2[nH]1` showed an IC50 in data set [10] of 30 nM.

Turning to `C=CS(=O)(=O)N(c1ccc(C(C)(C)C)cc1)C(C(=O)NC1CCCCC1)c1cccnc1` (stereo unspecified), the IC50 in [9] is 420 nM.

`O=c1c2ccccc2[se]n1-c1cccc(C(F)(F)F)c1`: the EC50 in the data set on SARS-CoV-2 [11] came to 840 nM.

Take `O=C(Sc1ncccn1)c1cc2ccccc2[nH]1`: the IC50 turned out to be 302 nM in data set [12] and 61 nM in data set [13].

As for `C[C@H](NC(=O)[C@@H](c1cccnc1)N(C(=O)C(Cl)Cl)c1ccc(-c2ccccc2)cc1)c1ccccc1`, the EC50 with SARS-CoV-2 [14] was 900 nM; in the data set with SARS-CoV-2 [15], 2050 nM.

For `CC(C)(C)[C@H](NC(=O)C(F)(F)F)C(=O)N1C[C@H]2[C@@H]([C@H]1C(=O)N[C@@H](C[C@@H]1CCNC1=O)C(=O)CO)C2(C)C`, the IC50 in the data set on Human coronavirus 229E was determined as 13 nM.

As for `CC(C)(C)[C@H](NC(=O)C(F)(F)F)C(=O)N1C[C@H]2[C@@H]([C@H]1C(=O)N[C@@H](C[C@@H]1CCNC1=O)C(=O)c1nc3ccccc3s1)C2(C)C`, the IC50 with Human coronavirus 229E worked out at 24 nM.

Consider `CC(C)C[C@H](NC(=O)[C@@H](NC(=O)c1ccc(Cl)cc1)C(C)C)C(=O)N[C@H](C=O)C[C@@H]1CCCNC1=O`, for which the IC50 in data set [10] turned out to be 140 nM.

In general, half-life refers to the time in which the quantity being followed falls by half. What is called bioavailability is dose-corrected exposure relative to a reference, in per cent. High values mean much systemic uptake, low ones little systemic uptake. As to `CC1(C)[C@@H]2[C@@H](C(=O)N[C@H](C=O)C[C@@H]3CCNC3=O)N(C(=O)COc3ccc(OC(F)(F)F)cc3)C[C@@H]21`, the half-life in [16] was 4.53 h. The molecule also displayed a bioavailability in data set [17] of 78%. Moreover, the CL/F in data set [18] is 22.7 mL/min/kg.

Regarding `C[C@H](NC(=O)[C@@H](c1cccnc1)N(C(=O)c1ccco1)c1ccc(-c2ccccc2)cc1)c1ccccc1`, in [19], the Ki was 101000 nM.

`Nc1cccn([C@@H](CC2CC2)C(=O)N[C@@H](C[C@@H]2CCNC2=O)C(=O)C(=O)NCc2ccccc2)c1=O`: the IC50 in data set [13] is 4000 nM.

Take `O=c1c2ccccc2[se]n1Cc1ccco1`: half-maximal inhibition in data set [20] (IC50) required 70 nM.
